According to US20210307271A1, “OPTIMIZATION OF ALGAL PRODUCT PRODUCTION THROUGH UNCOUPLING CELL PROLIFERATION AND ALGAL PRODUCT PRODUCTION” (priority 2008, published 2021):

Tests used:
Format in all cases: cell-based
Set-up in all cases: unit not given here
Scenedesmus obliquus [1] = assay: Effect of hormone concentrations on growth rate, photoheterotrophic conditions, 48 hours; conditions: control 0.41 ± 0.042
Scenedesmus obliquus [2] = assay: Effect of hormone concentrations on growth rate, heterotrophic conditions, 48 hours; conditions: control 0.35 ± 0.023
Chlorella protothecoides [3] = assay: Effect of hormone concentrations on growth rate, photoheterotrophic conditions, 48 hours; conditions: control 1.05 ± 0.020
Chlorella protothecoides [4] = assay: Effect of hormone concentrations on growth rate, heterotrophic conditions, 48 hours; conditions: control 1.54 ± 0.080

| SMILES | growth rate (Scenedesmus obliquus [1]; hormone 0.01 ng) | growth rate (Scenedesmus obliquus [1]; hormone 0.1 ng) | growth rate (Scenedesmus obliquus [1]; hormone 1 ng) | growth rate (Scenedesmus obliquus [1]; hormone 10 ng) | growth rate (Scenedesmus obliquus [1]; hormone 100 ng) | growth rate (Scenedesmus obliquus [2]; hormone 0.01 ng) | growth rate (Scenedesmus obliquus [2]; hormone 0.1 ng) | growth rate (Scenedesmus obliquus [2]; hormone 1 ng) | growth rate (Scenedesmus obliquus [2]; hormone 10 ng) | growth rate (Scenedesmus obliquus [2]; hormone 100 ng) | growth rate (Chlorella protothecoides [3]; hormone 0.01 ng) | growth rate (Chlorella protothecoides [3]; hormone 0.1 ng) | growth rate (Chlorella protothecoides [3]; hormone 1 ng) | growth rate (Chlorella protothecoides [3]; hormone 10 ng) | growth rate (Chlorella protothecoides [3]; hormone 100 ng) | growth rate (Chlorella protothecoides [4]; hormone 0.01 ng) | growth rate (Chlorella protothecoides [4]; hormone 0.1 ng) | growth rate (Chlorella protothecoides [4]; hormone 1 ng) | growth rate (Chlorella protothecoides [4]; hormone 10 ng) | growth rate (Chlorella protothecoides [4]; hormone 100 ng) |
| --- | --- | --- | --- | --- | --- | --- | --- | --- | --- | --- | --- | --- | --- | --- | --- | --- | --- | --- | --- | --- |
| c1ccc(CNc2ncnc3nc[nH]c23)cc1 [6-Benzylaminopurine, 6-benzylaminopurine] | 0.46 ± 0.056 | 0.37 ± 0.099 | 0.47 ± 0.011 | 0.47 ± 0.064 | 0.52 ± 0.060 | 0.28 ± 0.081 | 0.32 ± 0.061 | 0.39 ± 0.092 | 0.36 ± 0.092 | 0.33 ± 0.104 | 1.00 ± 0.030 | 1.12 ± 0.011 | 1.07 ± 0.035 | 1.04 ± 0.083 | 1.08 ± 0.023 | 1.48 ± 0.121 | 1.54 ± 0.081 | 1.50 ± 0.012 | 1.52 ± 0.117 | 1.46 ± 0.150 |
| O=C(O)COc1ccc(Cl)cc1Cl [2,4-Dichlorophenoxyacetic, 2,4-dichlorophenoxyacetic acid] | 0.42 ± 0.035 | 0.44 ± 0.000 | 0.47 ± 0.023 | 0.44 ± 0.028 | 0.33 ± 0.042 | 0.28 ± 0.030 | 0.23 ± 0.040 | 0.31 ± 0.020 | 0.24 ± 0.081 | 0.23 ± 0.040 | 1.09 ± 0.035 | 1.08 ± 0.133 | 1.01 ± 0.035 | 1.08 ± 0.030 | 1.03 ± 0.069 | 1.40 ± 0.061 | 1.53 ± 0.069 | 1.43 ± 0.069 | 1.31 ± 0.087 | 1.50 ± 0.081 |
| O=C(O)Cc1cccc2ccccc12 [1-Naphthaleneacetic acid, 1-naphthaleneacetic acid] | 0.84 ± 0.087 | 0.85 ± 0.042 | 0.81 ± 0.042 | 0.80 ± 0.141 | 0.73 ± 0.046 | 0.26 ± 0.042 | 0.28 ± 0.011 | 0.33 ± 0.020 | 0.28 ± 0.099 | 0.39 ± 0.053 | 1.00 ± 0.058 | 1.02 ± 0.050 | 1.05 ± 0.035 | 1.07 ± 0.028 | 1.16 ± 0.152 | 1.66 ± 0.140 | 1.54 ± 0.081 | 1.62 ± 0.136 | 1.57 ± 0.028 | 1.62 ± 0.064 |
| O=C(O)Cc1c[nH]c2ccccc12 [Indole-3-acetic acid, indole-3-acetic acid] | 0.42 ± 0.020 | 0.47 ± 0.061 | 0.49 ± 0.030 | 0.49 ± 0.023 | 0.62 ± 0.092 | 0.23 ± 0.020 | 0.36 ± 0.127 | 0.42 ± 0.081 | 0.47 ± 0.020 | 0.41 ± 0.053 | 1.06 ± 0.030 | 1.05 ± 0.019 | 0.97 ± 0.020 | 1.13 ± 0.019 | 1.02 ± 0.061 | 1.62 ± 0.133 | 1.61 ± 0.072 | 1.49 ± 0.122 | 1.60 ± 0.099 | 1.60 ± 0.076 |
| C=C1C[C@]23C[C@@]1(O)CC[C@H]2[C@@]12C=C[C@H](O)[C@@](C)(C(=O)O1)[C@H]2[C@@H]3C(=O)O [Gibberellic acid] | 0.59 ± 0.064 | 0.47 ± 0.081 | 0.56 ± 0.087 | 0.56 ± 0.141 | 0.51 ± 0.110 | 0.44 ± 0.083 | 0.50 ± 0.046 | 0.43 ± 0.020 | 0.36 ± 0.050 | 0.42 ± 0.064 | 1.06 ± 0.011 | 1.02 ± 0.046 | 1.00 ± 0.030 | 1.09 ± 0.122 | 1.10 ± 0.070 | 1.52 ± 0.201 | 1.52 ± 0.151 | 1.46 ± 0.090 | 1.52 ± 0.099 | 1.46 ± 0.050 |
| c1coc(CNc2ncnc3[nH]cnc23)c1 [Kinetin, kinetin] | 0.57 ± 0.133 | 0.73 ± 0.042 | 0.92 ± 0.113 | 0.37 ± 0.070 | 0.36 ± 0.060 | 0.28 ± 0.061 | 0.26 ± 0.076 | 0.36 ± 0.042 | 0.31 ± 0.028 | 0.28 ± 0.076 | 1.08 ± 0.023 | 1.10 ± 0.042 | 1.02 ± 0.011 | 1.18 ± 0.050 | 1.19 ± 0.035 | 1.60 ± 0.050 | 1.50 ± 0.050 | 1.44 ± 0.110 | 1.60 ± 0.070 | 1.58 ± 0.061 |
